Measurements published in publication PMC9137622, “OPDAylation of Thiols of the Redox Regulatory Network In Vitro” (Antioxidants, 2022).
Each block holds one compound with its values, some of them ahead of it.

Experiments:
GRX-C2 = biological target: T1, GRX-C2 (Arabidopsis thaliana, UniProt Q9FNE2); assay: HED assay, NADPH oxidation at […] nm; assay type: biochemical; conditions: 2 mM GSH, 0.7 mM HED, 1 µM GR, 0.1 µM GRX, pH 7.5, RT
T1 construct: gene GRXC2

GAPC2 = biological target: T2, GAPC2 (Arabidopsis thaliana, UniProt Q9FX54); assay: NADH consumption at […] nm, PGK-coupled; assay type: biochemical; conditions: 8 mM 3-PGA, 4 mM ATP, 90 nM PGK, pH 7.8, RT
T2 construct: His10-tagged, E. coli, Ni-NTA
T2 sequence (Q9FX54 whole entry): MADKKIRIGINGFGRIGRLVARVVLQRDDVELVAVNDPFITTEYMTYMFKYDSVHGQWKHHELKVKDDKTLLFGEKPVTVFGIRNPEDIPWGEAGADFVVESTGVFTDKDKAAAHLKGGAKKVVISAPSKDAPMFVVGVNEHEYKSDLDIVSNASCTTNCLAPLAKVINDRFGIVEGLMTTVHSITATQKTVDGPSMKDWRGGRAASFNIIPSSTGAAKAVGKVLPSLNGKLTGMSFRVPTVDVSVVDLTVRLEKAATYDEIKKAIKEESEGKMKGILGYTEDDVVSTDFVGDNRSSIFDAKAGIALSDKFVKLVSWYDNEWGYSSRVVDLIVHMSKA

TRX-h5 [1] = biological target: T3, TRX-h5 (Arabidopsis thaliana, UniProt Q39241); assay: coupled GPXL8 H2O2 reduction, NADPH oxidation at […] nm; assay type: biochemical; conditions: covalent; 20 µM reduced protein preincubated with 150 µM OPDA 1 h, then 0.25 µM in NTRA/GPXL8 assay, pH 7.5
T3 construct: gene TRX5
T3 sequence (Q39241 1-118 limits assumed): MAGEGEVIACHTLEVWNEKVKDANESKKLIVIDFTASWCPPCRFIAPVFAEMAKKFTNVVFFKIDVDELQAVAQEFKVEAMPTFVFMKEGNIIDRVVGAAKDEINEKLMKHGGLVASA

PRXIIB = biological target: T4, PRXIIB (Arabidopsis thaliana, UniProt Q9XEX2); assay: coupled H2O2 reduction (GR/GSH/GRXC2), NADPH oxidation at […] nm; assay type: biochemical; conditions: 20 µM reduced PRXIIB preincubated with 150 µM OPDA 1 h, then 3 µM in assay, pH 7.5; weak effect
T4 sequence (Q9XEX2 1-162): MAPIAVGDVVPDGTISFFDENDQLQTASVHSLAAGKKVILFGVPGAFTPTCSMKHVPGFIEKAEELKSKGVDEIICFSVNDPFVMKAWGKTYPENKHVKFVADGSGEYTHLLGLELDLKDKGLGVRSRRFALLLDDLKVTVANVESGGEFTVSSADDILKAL

TRX-m4 [2] = biological target: T5, TRX-m4 (Arabidopsis thaliana, UniProt Q9SEU6); assay: HPLC depletion of free OPDA, mPEG-maleimide shift; assay type: binding; conditions: covalent; 200 µM OPDA, 50 or 100 µM reduced protein, pH 7.2, at least 2 h, RT
T5 construct: gene At3g15360; His-tagged, E. coli, Ni-NTA
T5 sequence (Q9SEU6 83-193): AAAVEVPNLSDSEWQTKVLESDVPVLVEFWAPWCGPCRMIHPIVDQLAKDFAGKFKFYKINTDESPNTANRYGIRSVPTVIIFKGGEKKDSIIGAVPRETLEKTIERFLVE

TRX-f1 = biological target: T6, TRX-f1 (Arabidopsis thaliana, UniProt Q9XFH8); assay: HPLC depletion of free OPDA, mPEG-maleimide shift; assay type: binding; conditions: covalent; 200 µM OPDA, 50 or 100 µM reduced protein, pH 7.2, at least 2 h, RT
T6 construct: gene At3g02730; His-tagged, E. coli, Ni-NTA
T6 sequence (Q9XFH8 58-178): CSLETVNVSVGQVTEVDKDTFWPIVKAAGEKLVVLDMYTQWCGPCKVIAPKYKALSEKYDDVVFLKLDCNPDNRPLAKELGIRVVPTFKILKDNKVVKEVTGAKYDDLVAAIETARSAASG

TRX-m4 [3] = biological target: T5, TRX-m4; assay: coupled GPXL8 H2O2 reduction, NADPH oxidation at […] nm; assay type: biochemical; conditions: covalent; 20 µM reduced protein preincubated with 150 µM OPDA 1 h, then 5 µM in NTRA/GPXL8 assay, pH 7.5
TRX-h5 [4] = biological target: T3, TRX-h5; assay: HPLC depletion of free OPDA, mPEG-maleimide shift; assay type: binding; conditions: covalent; 200 µM OPDA, 50 or 100 µM reduced protein, pH 7.2, at least 2 h, RT
TRX-h3 = biological target: T7, TRX-h3 (Arabidopsis thaliana, UniProt Q42403); assay: coupled GPXL8 H2O2 reduction, NADPH oxidation at […] nm; assay type: biochemical; conditions: covalent; 20 µM reduced protein preincubated with 150 µM OPDA 1 h, then 0.25 µM in NTRA/GPXL8 assay, pH 7.5
T7 construct: gene TRX3
T7 sequence (Q42403 1-118 limits assumed): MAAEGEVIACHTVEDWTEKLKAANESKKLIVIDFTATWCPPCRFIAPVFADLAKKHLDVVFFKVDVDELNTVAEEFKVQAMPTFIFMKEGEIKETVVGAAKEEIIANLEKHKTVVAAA

T1 sequence (Q9FNE2 whole entry): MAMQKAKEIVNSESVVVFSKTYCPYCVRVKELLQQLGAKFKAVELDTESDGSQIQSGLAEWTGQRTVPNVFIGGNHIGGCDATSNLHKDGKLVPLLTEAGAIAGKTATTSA

Structure (SMILES): OCCSSCCO [HED, hydroxyethyldisulfide]
HED assay, NADPH oxidation at 340 nm (GRX-C2): HED assay to determine GRX-dependent reduction activity

Structure (SMILES): NC(=O)C1=CN([C@@H]2O[C@H](COP(=O)(O)OP(=O)(O)OC[C@H]3O[C@@H](n4cnc5c(N)ncnc54)[C@H](O)[C@@H]3O)[C@@H](O)[C@H]2O)C=CC1 [NADH]
NADH consumption at 340 nm, PGK-coupled (GAPC2): coupled activity of phosphoglycerate kinase and GAPDH was measured as consumption of NADH

inhibition (TRX-h5 [1]): ~ 80%
inhibition (TRX-m4 [3]): ~ 60%
inhibition (TRX-h3): ~ 80%
Structure (SMILES): CC/C=C\C[C@@H]1C(=O)C=C[C@@H]1CCCCCCCC(=O)O [OPDA, cis-(+)-12-oxophytodienoic acid]
inhibition (PRXIIB): OPDA seems to act directly on PRXIIB at a low level
HPLC depletion of free OPDA, mPEG-maleimide shift (TRX-m4 [2]): three thiols in the case of TRX-f1 and TRX-m4
HPLC depletion of free OPDA, mPEG-maleimide shift (TRX-f1): three thiols in the case of TRX-f1 and TRX-m4
HPLC depletion of free OPDA, mPEG-maleimide shift (TRX-h5 [4]): two thiols reacted with OPDA in the case of TRX-h3 and TRX-h5
